According to patent US7811352B2, “Fertilizer compositions and methods of using” (priority 2005, dated 2010):
Marks after values point to notes of the source that are not given here.

Tested on: green height, creeping bentgrass
Test: Color rating of green height creeping bentgrass after fertilization (Example 4)
Format: in vivo
Details: about two weeks after application
Procedure: In this Example, the efficacy of fertilizers on green height, creeping bentgrass was examined. Fertilizer compositions according to several embodiments of the present disclosure were prepared and compared to the commercial fertilizer products, urea 46-0-0 (granular) fertilizer, Lebanon fertilizer 21-0-12 (granular, commercially available from Lebanon Seaboard Corporation, Lebanon, Pa.) and Milorganite 6-2-0 (granular, commercially available from Milorganite, Milwaukee, Wis.). The fertilizer compositions were applied to the turf grass prior to winter dormancy of the turf at a rate equivalent to supplying about 1.0 pounds of nitrogen (N) per 1000 square feet. Each of the fertilizer compositions were applied at substantially equal rates of pounds (lbs) of nitrogen (N) per 1000 square feet. Table 1 illustrates the response of green height (i.e., the height of grass on golf course green), creeping bentgrass to fertilization using various exemplary fertilizers of the present invention, taken about two weeks after application of the fertilizer. The letters in the Color and Injury columns correspond to Duncan's Multiple Range Test. Numbers (means) in a column followed by the same letter are not statistically different at P=0.05.

NC(N)=O [Urea, urea, reference compound]
Color 1-9 (9 = dark green) (1.09 Lbs. product/1000 square feet): 6.7^a,b,c
Color 1-9 (9 = dark green) (2.17 Lbs. product/1000 square feet): 6.7^a,b,c
Color 1-9 (9 = dark green) (6.51 Lbs. product/1000 square feet): 6.0^d,c
